In patent US9055743B2, “Alpha, beta-unsaturated imines” (BAYER INTELLECTUAL PROPERTY GMBH, priority 2010, dated 2015):

Columns and labels:
Assay type in all cases: in vivo
[1] = tested on: cat fleas (Ctenocephalides felis, fully sensitive laboratory strain); experiment: Contact test against fleas in-vitro (CTECFE contact); conditions: 500 g/ha, after 48 h
Method: Contact Test Against Fleas In-Vitro (CTECFE Contact)
An amount of 0.9 mg of active compound is weighed out, and 1 ml of acetone is added.
Of this acetone solution, either […] are transferred directly into roll-necked test tubes or an aliquot is diluted with 4 parts of acetone 1:5. For its part, 250 μl of this dilution are pipetted into roll-necked test tubes, or the dilution is diluted further, etc., until the desired number of dilution steps is reached.
The roll-necked test tubes containing the solution of the active compound in acetone are immediately coated in a fume cupboard by 2 h of swing rotation at 30 rpm. After evaporation of the solvent, the active compound contained in the acetone gives, at the highest concentration tested, an active compound content of 500 g/ha (or 500 μg/dm^2) on the surface of the test tube.
10-20 Adult cat fleas (Ctenocephalides felis, fully sensitive laboratory strain) anesthetized with CO2 are transferred into the test tubes prepared in this manner, and the test tubes are closed with a plastic roll-necked lid provided with fine holes.
The test tubes are stored vertically at room temperature and humidity for 24 or 48 h. After 24 and 48 h, the activity of the active compound applied is determined by comparison with an acetone-treated control. Here, an observed normal activity for all fleas corresponds to 0% activity, a strongly restricted or uncoordinated (knock-down) movement or death of all fleas corresponds to 100% activity.

[2] = tested on: caterpillars of the army worm (Spodoptera frugiperda); experiment: Spodoptera frugiperda test (SPODFR spray treatment); conditions: 500 g/ha, spray, after 7 days; for pest or weed control at 500 g/ha: Spodoptera frugiperda, 168 h, read-out: activity (caterpillars killed)
Method: Spodoptera frugiperda Test (SPODFR Spray Treatment) Solvents: 78.0 parts by weight of acetone • • 1.5 parts by weight of dimethylformamide Emulsifier: 0.5 part by weight of alkylaryl polyglycol ether
(§1) To produce a suitable preparation of active compound, 1 part by weight of active compound is mixed with the stated amounts of solvents and emulsifier, and the concentrate is diluted with emulsifier-containing water to the desired concentration.
Discs of maize leaves (Zea mays) are sprayed with an active compound preparation of the desired concentration and, after drying, populated with caterpillars of the army worm (Spodoptera frugiperda) besetzt.
After 7 days, the activity in % is determined. 100% means that all caterpillars have been killed; 0% means that none of the caterpillars have been killed.

[3] = tested on: greenhouse red spider mite (Tetranychus urticae); experiment: Tetranychus test; OP-resistant (TETRUR spray treatment); conditions: 500 g/ha, spray, after 6 days; for pest or weed control at 500 g/ha: Tetranychus urticae, 144 h, read-out: activity (spider mites killed)
Method: Tetranychus Test; OP-Resistant (TETRUR Spray Treatment) Solvents: 78.0 parts by weight of acetone • • 1.5 parts by weight of dimethylformamide Emulsifier: 0.5 part by weight of alkylaryl polyglycol ether
as §1
Discs of bean leaves (Phaseolus vulgaris) infested by all stages of the greenhouse red spider mite (Tetranychus urticae) are sprayed with an active compound preparation of the desired concentration.
After 6 days, the activity in % is determined. 100% means that all spider mites have been killed; 0% means that none of the spider mites have been killed.

[4] = tested on: Anopheles gambiae (homocygus kdr); experiment: Anopheles test (ANPHGB surface treatment); conditions: for knock-down activity: 100 mg/m^2, two hours after contact, exposition 30 minutes
Method: Anopheles Test (ANPHGB Surface Treatment) Solvent: Acetone
(§2) To produce a suitable preparation of active compound, the active compound is dissolved in acetone (2 mg/ml). The active compound preparation is pipetted onto a glazed tile and, after drying, adult mosquitoes of the species Anopheles gambiae (homocygus kdr) are placed onto the treated tile. The exposition time is 30 minutes.
(§3) Two hours after contact to the treated surface, the knock-down proportion of the test animals in % is determined.
24 hours after contact to the treated surface, the mortality in % is determined. Here, 100% means that all mosquitoes have been killed; 0% means that none of the mosquitoes has been killed.

Aedes aegypti = experiment: Aedes test (AEDSAE surface treatment); conditions: for knock-down activity: 100 mg/m^2, two hours after contact, exposition 30 minutes; for mortality at 100 mg/m2: Aedes aegypti, read-out: activity (mortality in %)
Method: Aedes Test (AEDSAE Surface Treatment)
as §2, with “Aedes aegypti” for “Anopheles gambiae (homocygus kdr)”
as §3
24 hours after contact to the treated surface, the mortality in % is determined Here, 100% means that all mosquitoes have been killed; 0% means that none of the mosquitoes has been killed.

[5] = tested on: larvae of the mustard beetle (Phaedon cochleariae); experiment: Phaedon test (PHAECO spray treatment); conditions: 500 g/ha, spray, after 7 days
Method: Phaedon Test ([…] Spray Treatment) Solvents: 78.0 parts by weight of acetone • • 1.5 parts by weight of dimethylformamide Emulsifier: 0.5 part by weight of alkylaryl polyglycol ether To produce a suitable preparation of active compound, 1 part by weight of active compound is mixed with the stated amounts of solvents and emulsifiers, and the concentrate is diluted with emulsifier-containing water to the desired concentration. Discs of Chinese cabbage leaves (Brassica pekinensis) are sprayed with an active compound preparation of the desired concentration and, after drying, populated with larvae of the mustard beetle (Phaedon cochleariae).

[6] = tested on: green peach aphid (Myzus persicae); experiment: Myzus test (MYZUPE spray treatment); conditions: 500 g/ha, spray, after 6 days
Method: Myzus Test (MYZUPE Spray Treatment) Solvents: 78 parts by weight of acetone • • 1.5 parts by weight of dimethylformamide Emulsifier: 0.5 part by weight of alkylaryl polyglycol ether
as §1
Discs of Chinese cabbage leaves (Brassica pekinensis) which are infested by all stages of the green peach aphid (Myzus persicae) are sprayed with an active compound preparation of the desired concentration.
After 6 days, the activity in % is determined. 100% means that all aphids have been killed; 0% means that none of the aphids have been killed.

| Structure (SMILES) | activity against cat fleas [1] [%] | activity (caterpillars killed) [2] [%] | activity (spider mites killed) [3] [%] | knock-down activity [4] [%] | knock-down activity (Aedes aegypti) [%] | activity (beetle larvae killed) [5] [%] | activity (aphids killed) [6] [%] | also measured |
| --- | --- | --- | --- | --- | --- | --- | --- | --- |
| COc1ccc(N=C2C(=CSc3ccccc3)C(C)c3ccccc32)cc1 (mixture of isomers) [Example 1-22] | 100 | 100 | 90 |  |  |  |  |  |
| Cc1ccc(N=C2C=CC(C)(C)CC2=CSc2ccc(F)cc2)cc1 (mixture of isomers) [Example 1-44] |  | 83 | 90 | 100 | 90 |  |  |  |
| Cc1ccc(N=C2C(=CSc3ccc(F)cc3)C(C)c3cc(C)ccc32)cc1 (mixture of isomers) [Example 1-51] |  | 100 |  | 100 | 85 | 100 | 100 |  |
| COc1ccc2c(c1)C(C)C(=CSc1ccc(F)cc1)C2=Nc1ccc(C)cc1 (mixture of isomers) [Example 1-65] |  | 100 | 100 | 100 | 85 | 100 | 100 |  |
| CCOC1=CC(=CSc2ccc(F)cc2)C(=Nc2ccc(C)cc2)CC1 (mixture of isomers) [Example 1-96] |  |  | 90 |  | 80 |  | 90 |  |
| C(Sc1ccccc1)=C1CCc2ccccc2C1=Nc1ccccc1 [Example 1-8] | 100 | 100 | 100 | 85 |  | 100 |  |  |
| Cc1ccc(N=C2C(=CSc3ccc(F)cc3)CC(C)c3ccccc32)cc1 (centres unmarked) [Example 1-14] | 100 | 100 | 100 | 95 |  | 100 | 100 |  |
| Cc1ccc(N=C2C(=CSc3ccc(F)cc3)CCc3ccc(F)cc32)cc1 [Example 1-15] | 100 | 100 | 100 |  |  | 100 | 100 |  |
| Cc1ccc(N=C2C(=CSc3ccc(F)cc3)COc3ccc(F)cc32)cc1 [Example 1-23] | 100 | 100 |  |  |  | 100 |  |  |
| COc1cccc2c1CCC(=CSc1ccc(F)cc1)C2=Nc1ccc(C)cc1 [Example 1-31] | 100 | 100 | 100 |  |  |  |  |  |
| COc1ccc2c(c1)C(=Nc1ccc(C)cc1)C(=CSc1ccc(F)cc1)CC2 [Example 1-32] | 100 | 100 | 100 |  |  |  |  |  |
| Cc1ccc(N=C2C(=CSc3ccc(F)cc3)CCc3ccccc32)cc1C [Example 1-41] |  | 100 | 80 | 100 | 95 | 100 | 90 |  |
| Cc1ccc(N=C2C(=CSc3ccc(F)cc3)CCc3ccccc32)c(C)c1 [Example 1-43] |  | 100 | 80 | 100 | 100 | 100 | 90 |  |
| Cc1ccc(N=C2C(=CSc3ccc(F)cc3)CCc3cc(Cl)ccc32)cc1 [Example 1-47] | 100 | 100 | 100 | 85 |  | 100 | 100 |  |
| Cc1ccc(N=C2C(=CSc3ccc(F)cc3)CCc3nc(Cl)ccc32)cc1 [Example 1-54] | 100 | 100 | 80 |  |  | 100 | 80 |  |
| Cc1ccc(N=C2C(=CSc3ccc(F)cc3)CSc3cc(C)ccc32)cc1 [Example 1-76] |  |  |  | 100 | 80 |  |  |  |
| Cc1ccc(N=C2C(=CSc3ccc(F)cc3)COc3cccc(C)c32)cc1 [Example 1-86] |  |  |  | 100 | 95 |  |  |  |
| Cc1cccc(N=C2C(=CSc3ccc(F)cc3)CCc3ccccc32)c1 [Example 1-88] |  | 100 | 100 | 100 | 85 | 100 | 100 |  |
| CCOC1=CC(=Nc2ccc(C)cc2)C(=CSc2ccc(F)cc2F)CC1 [Example 1-98, N-(6-{[(2,4-Difluorophenyl)sulphanyl]methylene}-3-ethoxycyclohex-2-en-1-ylidene)-4-methylaniline] |  |  |  |  |  |  |  | pest or weed control at 500 g/ha [2]: 83%; pest or weed control at 500 g/ha [3]: 100%; mortality at 100 mg/m2 (Aedes aegypti): 80% |
| Cc1ccc(N=C2C(=CSc3cccc(F)c3)C3CCC2C3)cc1 (centres unmarked) [Example 1-102] |  |  |  | 100 | 100 |  |  |  |
| Cc1ccc(N=C2C(=CSc3ccccc3F)C3CCC2C3)cc1 (centres unmarked) [Example 1-103] |  |  |  | 100 | 100 |  |  |  |
| Cc1ccc(N=C2c3ccccc3CCC2C(Sc2ccccc2)Sc2ccccc2)cc1 (centres unmarked) [Example 2-1] |  |  |  | 100 | 100 |  |  | pest or weed control at 500 g/ha ([5]; Phaedon cochleariae, 168 h, read-out: activity (beetle larvae killed)): 100%; pest or weed control at 500 g/ha [2]: 100%; pest or weed control at 500 g/ha ([6]; Myzus persicae, 144 h, read-out: activity (aphids killed)): 90%; pest or weed control at 500 g/ha [3]: 80%; mortality at 100 mg/m2 ([4]; Anopheles gambiae, read-out: activity (mortality in %)): 100%; mortality at 100 mg/m2 (Aedes aegypti): 100% |
| c1ccc(N=C2c3ccccc3CCC2C(Sc2ccccc2)Sc2ccccc2)cc1 (centres unmarked) [Example 2-2] |  |  |  | 100 | 100 |  |  |  |
| Cc1ccc(N=C2c3ccccc3OCC2C(Sc2ccc(F)cc2)Sc2ccc(F)cc2)cc1 (centres unmarked) [Example 2-11] | 100 | 100 | 100 |  |  | 100 | 100 |  |
